Laboratory results published in patent US7582611B2, “Motilide compounds” (Pfizer Inc., priority 2005, dated 2009).
Converted amounts (≈) assume the structure as drawn.

What was measured:
Motilin Receptor = molecular target: T1, Motilin Receptor (Oryctolagus cuniculus, UniProt G1T803); assay: Tissue based assay for motilin agonist potency (rabbit duodenum contractility); format: cell-based; settings: rabbit duodenum strips, contraction normalized to 1 μM carbachol; read-out: Motilin Receptor Agonist Activity (EC50)
T1 construct: strips of longitudinal smooth muscle were sliced from the segments; from tissue; host or cells: rabbit duodenum longitudinal smooth muscle strips
Protocol: The motilin agonist potencies of compounds of this invention were evaluated using a tissue based assay, using rabbit duodenum tissue-based contractility assay, generally following the procedure of Depoortere et al., J. Gastrointestinal Motility, 1, 150-159 (1989), the disclosure of which is incorporated herein by reference. Briefly, this method measures the ability of a compound to induce contractions in rabbit duodenal tissue, a motilin receptor-bearing tissue contractilely responsive to motilin.
Strips of rabbit duodenum were tested and qualified for use in the assay by as follows. Segments of rabbit duodenum, 20-30 cm distal to the pylorus were split longitudinally. The mucosa was removed and 2×2×15 mm strips of longitudinal smooth muscle were sliced from the segments. The strips were bathed in oxygenated Krebs solution at 37° C., with 1.5 g of tension, and contractions measured auxotonically.
The carbachol was then washed away by changing the organ bath buffer twice. The strips were washed again 20±5 minutes following the carbachol contraction. Following this last wash a dose response study was initiated within 10±5 min. Each compound tested was dissolved in dimethylsulfoxide (DMSO) to a final concentration of 10 mM. A series of seven 10× serial dilutions in water was prepared, so that the concentration of the seventh serial dilution was 1.0×10^−6 mM. The first through fifth serial dilutions of the compound were applied, starting with 200 μL of the most dilute solution. After each application, there was a wait of 2±0.5 min, until the response was stable, before the application of the next dose (the next higher concentration serial dilution). The dose was increased in 10-fold increments until a small response was observed. Subsequent doses were the increased in 2- to 5-fold increments, until the maximum response was obtained. At 2±0.5 min after the last drug addition, the strips were dosed with 1 μM carbachol.
The EC50 (concentration producing a half-maximal effect) was calculated as follows. The basal tension was subtracted from the compound-induced tension for each reading. The data points were normalized against the response obtained from 1 μM carbachol at the end of the experiment. The concentration of compound was plotted against the response and fitted to the following equation: R=(Rmax·C)/(EC50+C) where R is the contraction response, Rmax is the maximal contraction response, and C is the concentration of compound. Both R and Rmax are expressed as a fraction of the 1 μM carbachol contraction and range from 0 to 1.

[1] = tested on: Streptococcus pneumoniae ATCC 6301; assay: Evaluation of antibacterial activity (MIC, serial dilutions on 96-well microtiter plates); format: cell-based; settings: ATCC6301, read-out: Antibacterial Activity (MIC, μg/mL)

T1 sequence (G1T803 1-400): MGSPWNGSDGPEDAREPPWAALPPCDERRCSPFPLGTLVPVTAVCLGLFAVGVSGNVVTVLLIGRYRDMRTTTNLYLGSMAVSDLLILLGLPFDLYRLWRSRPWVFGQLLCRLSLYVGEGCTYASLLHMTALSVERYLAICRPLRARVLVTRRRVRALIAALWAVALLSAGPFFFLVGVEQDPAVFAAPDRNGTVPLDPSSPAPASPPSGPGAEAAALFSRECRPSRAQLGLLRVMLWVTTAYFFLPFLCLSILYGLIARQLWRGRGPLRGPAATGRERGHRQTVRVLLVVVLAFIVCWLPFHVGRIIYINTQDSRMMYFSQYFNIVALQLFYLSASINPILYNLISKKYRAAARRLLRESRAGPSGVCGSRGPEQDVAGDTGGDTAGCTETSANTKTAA

EC50 (Motilin Receptor) | MIC [1] | SMILES
240 nM | > 128 µg/mL | CC[C@H]1OC(=O)[C@H](C)[C@@H](O[C@H]2C[C@@](C)(OC)[C@@H](O)[C@H](C)O2)[C@H](C)[C@@H](O[C@@H]2O[C@H](C)C[C@H](N(C)C(C)C)[C@H]2O)[C@](C)(O)C[C@@H](C)[C@H](OCCNS(C)(=O)=O)[C@H](C)[C@@H](O)[C@]1(C)O [Compound A-32]
190 nM | 64 µg/mL (≈ 76.1 µM) | CC[C@H]1OC(=O)[C@H](C)[C@@H](O[C@H]2C[C@@](C)(OC)[C@@H](O)[C@H](C)O2)[C@H](C)[C@@H](O[C@@H]2O[C@H](C)C[C@H](N(C)C(C)C)[C@H]2O)[C@](C)(O)C[C@@H](C)[C@H](NS(C)(=O)=O)[C@H](C)[C@@H](O)[C@]1(C)O [Compound A-35]
2900 nM | > 128 µg/mL | CC[C@H]1OC(=O)[C@H](C)[C@@H](O[C@H]2C[C@@](C)(OC)[C@@H](O)[C@H](C)O2)[C@H](C)[C@@H](O[C@@H]2O[C@H](C)C[C@H](N(C)C[C@H](C)O)[C@H]2O)[C@](C)(O)C[C@@H](C)[C@H](OCC(=O)N(C)C)[C@H](C)[C@@H](O)[C@]1(C)O [Compound A-16]
660 nM | 64 µg/mL (≈ 75.4 µM) | CC[C@H]1OC(=O)[C@H](C)[C@@H](O[C@H]2C[C@@](C)(OC)[C@@H](O)[C@H](C)O2)[C@H](C)[C@@H](O[C@@H]2O[C@H](C)C[C@H](N(C)C(C)C)[C@H]2O)[C@](C)(O)C[C@@H](C)[C@H](OCC(=O)N(C)C)[C@H](C)[C@@H](O)[C@]1(C)O [Compound A-15]
58 nM | 64 µg/mL (≈ 76.6 µM) | CC[C@H]1OC(=O)[C@H](C)[C@@H](O[C@H]2C[C@@](C)(OC)[C@@H](O)[C@H](C)O2)[C@H](C)[C@@H](O[C@@H]2O[C@H](C)C[C@H](N(C)C(C)C)[C@H]2O)[C@](C)(O)C[C@@H](C)[C@H](OCC(=O)NC)[C@H](C)[C@@H](O)[C@]1(C)O [Compound A-21]
140 nM | 128 µg/mL (≈ 150 µM) | CC[C@H]1OC(=O)[C@H](C)[C@@H](O[C@H]2C[C@@](C)(OC)[C@@H](O)[C@H](C)O2)[C@H](C)[C@@H](O[C@@H]2O[C@H](C)C[C@H](N(C)CC(C)C)[C@H]2O)[C@](C)(O)C[C@@H](C)[C@H](NS(C)(=O)=O)[C@H](C)[C@@H](O)[C@]1(C)O [Compound A-38]
490 nM | 128 µg/mL (≈ 144 µM) | CC[C@H]1OC(=O)[C@H](C)[C@@H](O[C@H]2C[C@@](C)(OC)[C@@H](O)[C@H](C)O2)[C@H](C)[C@@H](O[C@@H]2O[C@H](C)C[C@H](N(C)C[C@H](C)O)[C@H]2O)[C@](C)(O)C[C@@H](C)[C@H](OS(=O)(=O)N(C)C)[C@H](C)[C@@H](O)[C@]1(C)O [Compound A-20]
650 nM | 64 µg/mL (≈ 79.3 µM) | CC[C@H]1OC(=O)[C@H](C)[C@@H](O[C@H]2C[C@@](C)(OC)[C@@H](O)[C@H](C)O2)[C@H](C)[C@@H](O[C@@H]2O[C@H](C)C[C@H](N(C)C(C)C)[C@H]2O)[C@](C)(O)C[C@@H](C)[C@H](OC(N)=O)[C@H](C)[C@@H](O)[C@]1(C)O [Compound A-17]
210 nM | > 128 µg/mL | CC[C@H]1OC(=O)[C@H](C)[C@@H](O[C@H]2C[C@@](C)(OC)[C@@H](O)[C@H](C)O2)[C@H](C)[C@@H](O[C@@H]2O[C@H](C)C[C@H](N(C)C(C)C)[C@H]2O)[C@](C)(O)C[C@@H](C)[C@H](OCC#N)[C@H](C)[C@@H](O)[C@]1(C)O [Compound A-7]
130 nM | 128 µg/mL (≈ 148 µM) | CC[C@H]1OC(=O)[C@H](C)[C@@H](O[C@H]2C[C@@](C)(OC)[C@@H](O)[C@H](C)O2)[C@H](C)[C@@H](O[C@@H]2O[C@H](C)C[C@H](N(C)C(C)C)[C@H]2O)[C@](C)(O)C[C@@H](C)[C@H](OCCNC(=O)OC)[C@H](C)[C@@H](O)[C@]1(C)O [Compound A-65]
48 nM | > 128 µg/mL | CC[C@H]1OC(=O)[C@H](C)[C@@H](O[C@H]2C[C@@](C)(OC)[C@@H](O)[C@H](C)O2)[C@H](C)[C@@H](O[C@@H]2O[C@H](C)C[C@H](N(C)C(C)C)[C@H]2O)[C@](C)(O)C[C@@H](C)[C@H](OCCNC(C)=O)[C@H](C)[C@@H](O)[C@]1(C)O [Compound A-30]

Continued, compound first:

SMILES | EC50 (Motilin Receptor) | MIC [1]
CC[C@H]1OC(=O)[C@H](C)[C@@H](O[C@H]2C[C@@](C)(OC)[C@@H](O)[C@H](C)O2)[C@H](C)[C@@H](O[C@@H]2O[C@H](C)C[C@H](N(C)CCO)[C@H]2O)[C@](C)(O)C[C@@H](C)[C@H](OC)[C@H](C)[C@@H](O)[C@]1(C)O [Compound A-2] | 140 nM | 64 µg/mL (≈ 82.1 µM)
CC[C@H]1OC(=O)[C@H](C)[C@@H](O[C@H]2C[C@@](C)(OC)[C@@H](O)[C@H](C)O2)[C@H](C)[C@@H](O[C@@H]2O[C@H](C)C[C@H](N(C)C(C)C)[C@H]2O)[C@](C)(O)C[C@@H](C)[C@H](OCC(=O)NCC(F)(F)F)[C@H](C)[C@@H](O)[C@]1(C)O [Compound A-52] | 160 nM | 128 µg/mL (≈ 142 µM)
CC[C@H]1OC(=O)[C@H](C)[C@@H](O[C@H]2C[C@@](C)(OC)[C@@H](O)[C@H](C)O2)[C@H](C)[C@@H](O[C@@H]2O[C@H](C)C[C@H](N(C)C(C)C)[C@H]2O)[C@](C)(O)C[C@@H](C)[C@H](OCC(=O)NCCOC)[C@H](C)[C@@H](O)[C@]1(C)O [Compound A-63] | 50 nM | 128 µg/mL (≈ 146 µM)
CC[C@H]1OC(=O)[C@H](C)[C@@H](O[C@H]2C[C@@](C)(OC)[C@@H](O)[C@H](C)O2)[C@H](C)[C@@H](O[C@@H]2O[C@H](C)C[C@H](N(C)C(C)C)[C@H]2O)[C@](C)(O)C[C@@H](C)[C@H](OCC(=O)N(C)C)[C@H](C)[C@@H](O)[C@H]1C [Compound A-72] | 270 nM | > 128 µg/mL
CC[C@@H](O)[C@@](C)(O)[C@@H]1OC(=O)[C@@H](C)[C@H](C[C@H]2C[C@@](C)(OC)[C@@H](O)[C@H](C)O2)[C@H](C)[C@@H](OC2O[C@H](C)C[C@H](N(C)C(C)C)[C@H]2O)[C@@]2(C)CC(C)=C(O2)[C@@H]1C (stereo partly shown) [KC-11458, reference compound] | 45 nM | > 128 µg/mL
CC[C@H]1OC(=O)[C@H](C)[C@@H](O[C@H]2C[C@@](C)(OC)[C@@H](O)[C@H](C)O2)[C@H](C)[C@@H](O[C@@H]2O[C@H](C)C[C@H](N(C)C(C)C)[C@H]2O)[C@](C)(O)C[C@@H](C)[C@H](OCCCC(=O)NC)[C@H](C)[C@@H](O)[C@]1(C)O [Compound A-73] | 84 nM | 128 µg/mL (≈ 148 µM)
CC[C@H]1OC(=O)[C@H](C)[C@@H](O[C@H]2C[C@@](C)(OC)[C@@H](O)[C@H](C)O2)[C@H](C)[C@@H](O[C@@H]2O[C@H](C)C[C@H](N(C)C(C)C)[C@H]2O)[C@](C)(O)C[C@@H](C)[C@H](OCC(=O)NC)[C@H](C)[C@@H](O)[C@H]1C [Compound A-71] | 90 nM | > 128 µg/mL
CC[C@H]1OC(=O)[C@H](C)[C@@H](O[C@H]2C[C@@](C)(OC)[C@@H](O)[C@H](C)O2)[C@H](C)[C@@H](O[C@@H]2O[C@H](C)C[C@H](N(C)C(C)C)[C@H]2O)[C@](C)(O)C[C@@H](C)[C@H](OC(=O)N(C)C)[C@H](C)[C@@H](O)[C@H]1C [Compound A-75] | 290 nM | > 128 µg/mL
CC[C@H]1OC(=O)[C@H](C)[C@@H](O[C@H]2C[C@@](C)(OC)[C@@H](O)[C@H](C)O2)[C@H](C)[C@@H](O[C@@H]2O[C@H](C)C[C@H](N(C)C(C)C)[C@H]2O)[C@@]2(C)CC(C)=C(O2)[C@H](C)C(=O)[C@]1(C)OC [GM-611, reference compound] | 11 nM | 128 µg/mL (≈ 169 µM)
CC[C@H]1OC(=O)[C@H](C)[C@@H](O[C@H]2C[C@@](C)(OC)[C@@H](O)[C@H](C)O2)[C@H](C)[C@@H](O[C@@H]2O[C@H](C)C[C@H](N(C)C(C)C)[C@H]2O)[C@](C)(O)C[C@@H](C)[C@H](OCCCCC(=O)NC)[C@H](C)[C@@H](O)[C@]1(C)O [Compound A-74] | 270 nM | 128 µg/mL (≈ 146 µM)
CC[C@H]1OC(=O)[C@H](C)[C@@H](O[C@H]2C[C@@](C)(OC)[C@@H](O)[C@H](C)O2)[C@H](C)[C@@H](O[C@@H]2O[C@H](C)C[C@H](N(C)C(C)C)[C@H]2O)[C@](C)(O)C[C@@H](C)[C@H](OCC(=O)Nc2cnccn2)[C@H](C)[C@@H](O)[C@]1(C)O [Compound A-70] | 60 nM | 128 µg/mL (≈ 142 µM)
CC[C@H]1OC(=O)[C@H](C)[C@@H](O[C@H]2C[C@@](C)(OC)[C@@H](O)[C@H](C)O2)[C@H](C)[C@@H](O[C@@H]2O[C@H](C)C[C@H](N(C)C(C)C)[C@H]2O)[C@](C)(O)C[C@@H](C)[C@H](OCc2csc(C)n2)[C@H](C)[C@@H](O)[C@]1(C)O [Compound A-26] | 480 nM | 128 µg/mL (≈ 146 µM)
